According to patent US20230168255A1, “UNBLENDING OF TRANSCRIPTIONAL CONDENSATES IN HUMAN REPEAT EXPANSION DISEASE” (Max-Planck-Gesellschaft zur Förderung der Wissenschaften …, priority 2020, published 2023):

Legend:
[1] = target: T1, Hoxd13 +7A IDR-Med1 IDR co-condensates (Homo sapiens, UniProt P35453, DUP65-71); test: in vitro droplet assay, compound treatment of Hoxd13 IDR-Med1 IDR co-condensates; type: biochemical; details: purified Hoxd13 +7A IDR-mCherry mixed with MED1 IDR-GFP; FIG. 3G-J, FIG. 8
T1 construct: His tag (from pET45b(+); purified on a His column); made in house; host or cells: E. coli BL21(DE3)
T1 sequence (P35453 with tags, fused parts or gaps DUP65-71): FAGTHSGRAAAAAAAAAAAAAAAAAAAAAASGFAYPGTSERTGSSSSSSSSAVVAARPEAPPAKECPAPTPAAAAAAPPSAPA
Description: (§1) For image analysis, droplets were first automatically thresholded in either the mEGFP or mCherry channel using Zen Blue (Version 3.0), and then filtered by size, pixel intensity, and pixel deviation. Mean fluorescence intensities, area, and diameter of these primary regions were measured on both channels. For quantification and data visualization (FIG. 1J, 2H, 3B-E, 3H-J, 6F, 6H, 60, 6Q), raw values for diameter, mean intensity, or area were plotted as indicated in figure legends using R-Studio and the Directlabels package.
(§2) For in vitro droplet formation, recombinant mCherry or mEGFP fusion proteins were measured for concentration, and then diluted or mixed to suitable final concentrations in storage buffer. For microscopy, these solutions were further diluted 1:2 in either 20% or 10% PEG-8000 in deionized water (w/v). 10 μL of this suspension was pipetted onto chambered coverslips, and immediately imaged using a LSM880 confocal microscope equipped with a 63×1.40 oil DIC objective and AiryScan detector. All images were acquired from within the solution interface, and performed before droplets settled onto the bottom of the coverslip, as described in (Sabari et al., 2018). For droplet assays using preformed GFP-Med1 condensates (FIG. 3E-F), GFPMed1 droplets were allowed to form for 30 minutes at room temperature in the presence of 10% PEG-8000, before proceeding with co-condensation assays. For compound treatments of cocondensates (FIG. 3G-J), small molecules [ATP (Jena Bioscience, NU-1010), Mitoxantrone dihydrochloride (Sigma M6545), (±)-α-lipoic acid (Sigma 62320), and lipoamide, (Medchemexpress HY-B1142)] were directly diluted into droplet mixtures with or without vehicle (DMSO, Sigma D2650) to the desired final concentrations.

[2] = test system: Hoxd13 puncta in limb bud cells; test: 1,6-hexanediol treatment of limb bud cells, Hoxd13 immunofluorescence; type: cell-based, mouse; details: 6% for 1 min; limb bud cells expressing +7A Hoxd13 (spdh) versus wt
Description: 1,6-hexanediol treatment: Isolated limb bud cells attached to fibronectin coated glass coverslips were treated with 6% or 0% hexanediol (Sigma, 240117) in 1 mL cell culture media for 1 minute at 37° C. After treatment, cells were washed with 1 mL of PBS, and immediately fixed in 4% paraformaldehyde in PBS for 10 min. Fixed cells were washed and then stored at 4° C. until processing for immunofluorescence and microscopy.
Isolated limb bud cells, Kelly cells, and SH-SY5Y cells attached to coated glass coverslips were fixed in 4% paraformaldehyde (PFA) (Sigma-Aldrich, P6148) in PBS for 10 min and stored at 4° C. in PBS or processed immediately. Cells were permeabilized in 0.1% Triton X-100 (Thermo Scientific, 85111) in PBS for 10 min at RT. […]
Hoxd13 puncta detected in fixed cell immunofluorescence (FIG. 4C-D) were analyzed using a similar workflow described above. Nuclear regions were automatically detected in the Zen Blue (Zeiss) software package using the DAPI counterstain signal. Puncta were segmented on morphology, and then filtered based on fluorescence intensity and circularity. […] Values for nuclear area, Hoxd13 puncta area, Hoxd13 puncta mean fluorescence intensity, and Hoxd13 puncta count were measured for 120 wild type cells, 143 1-6 HD treated wild type cells, 63 spdh cells, and 62 1-6 HD treated spdh cells.

[3] = test system: Hoxd13 +7A IDR-Med1 IDR co-condensates; test: in vitro droplet assay, compound treatment of Hoxd13 IDR-Med1 IDR co-condensates; type: biochemical; details: summary statement; TFs containing disease-mutations
Description: as §1, §2

| Molecule | reblending of co-condensates (ratio of GFP and mCherry fluorescence in HOXD13 IDR-mCherry containing droplets) [1] | sensitivity of Hoxd13 puncta to 1,6-HD [2] | composition of heterotypic condensates formed by Cluster 1 TFs with transcriptional co-activators (co-activator and TF content) [3] |
| --- | --- | --- | --- |
| O=C(O)CCCCC1CCSS1 (racemic) [lipoic acid, (±)-α-lipoic acid] | failed to reblend |  |  |
| OCCCCCCO [1,6-HD, 1,6-hexanediol] |  | considerably reduced sensitivity |  |
| Nc1ncnc2c1ncn2[C@@H]1O[C@H](COP(=O)(O)OP(=O)(O)NP(=O)(O)O)[C@@H](O)[C@H]1O [APPNP, adenosine-5′-[(β,γ)-imido]triphosphate] | capable of reblending |  | effective |
| NC(=O)CCCCC1CCSS1 (stereo not shown) [lipoamide] | failed to reblend |  |  |
| adenosine tri-phosphate [ATP] | reblended Hoxd13 +7A IDR-Med1 IDR co-condensates in a dose dependent manner |  | revert the compositional alteration |
